Experimental data taken from US6492427B2, “Methods for treating multiple sclerosis” (priority 1998, dated 2002).
Entries after “also recorded” stand apart in the source; their conditions may differ. Read-outs that look alike come from different tables or passages of the source.

How the values were obtained:
oligodendroglial cells [1] = test: Total counts of intact methylene blue stained cells; format: cell-based, rat; conditions: BM-D9 (10^−9 M), 24 h
Experimental: Cells were trophically withdrawn by replacing the media with a serum free, chemically-defined base media (BM) lacking insulin and IGF-I (Bottenstein et al., 1988). The base media consisited of DMEM supplemented with penicillin (50 IU/ml); streptomycin (50 μg/ml); 1 mM sodium pyruvate; 50 μg/ml transferrin; 0.005 μg/ml sodium selenite; 16 μg/ml putrescine; 0.006 μg/ml progesterone and 0.1 mg/ml bovine serum albumin. All the cells were washed with BM twice before exposing them to individual treatment conditions. Control cells were washed and placed in BM supplemented with 2.5 ng/ml IGF-I and 5 μg/ml insulin to form the insulin media (IM).
To study the effects of trophic-like agents on the survival of oligodendroglial […].
Methylene blue (3,7-bis (dimethylamino)-phenothiazin-5-ium chloride), a ribonucleic acid (RNA) binding agent commonly used as an alternative nucleic acid stain, can also be used as a biological staining agent to stain cells in order to observe their morphological features. […]
Cell counts were performed for 25 randomly chosen 100 power fields on each coverslip. […] Three coverslips was counted for each treatment condition. In subsequent experiments, different cell types (for example, O-2A progenitors, PROLs, OLs and astrocytes) were morphologically identified on each field and were counted separately for experimental series-I and II. […]

CA1 hippocampal neurons = conditions: cited from earlier work
OLs = test: Methylene blue counts of individual cell types: OLs; format: cell-based, rat; conditions: BM-D9, 24 h
Experimental: (§1) Methylene blue (3,7-bis (dimethylamino)-phenothiazin-5-ium chloride), a ribonucleic acid (RNA) binding agent commonly used as an alternative nucleic acid stain, can also be used as a biological staining agent to stain cells in order to observe their morphological features. At 24 h, cells were fixed in 2% paraformaldehyde for 15 min at room temperature. Briefly, cells were washed twice with PBS and 100 μl of 1% methylene blue (Mallinckrodt Chemical Co., MO, USA) solution containing 1% AgNO3 was added for 10 min to the wells containing coverslips. Subsequently, the coverslips were washed with two changes of distilled water and absolute ethanol, cleared with xylene and mounted on slides with permount.
(§2) Cell counts were performed for 25 randomly chosen 100 power fields on each coverslip. Two randomly generated coordinates drawn from a uniform distribution of random numbers specified the center of each field. The random numbers were generated on a computer by using Microcal Origin 4.0 program. […] Three coverslips was counted for each treatment condition. In subsequent experiments, different cell types (for example, O-2A progenitors, PROLs, OLs and astrocytes) were morphologically identified on each field and were counted separately for experimental series-I and II. […]

[2] = test system: CA1, CA3 and CA4 hippocampal neurons; conditions: 0.25 mg/kg daily, multiple time points up to 14 days (Paterson et al., 1997); cited from earlier work
[3] = test system: MBP, PLP, GC and CNPase-I; test: Western blot of PROL and OL marker proteins; format: cell-based, rat; conditions: BM + 10^−9 M, 18 h
[4] = pH about 3-5 vs pH about 7; cited from earlier work
O-2As = test: Methylene blue counts of individual cell types: O-2As; format: cell-based, rat; conditions: BM-D9, 24 h
Experimental: as §1, §2

oligodendroglial cells [5] = test: DNA extraction and electrophoresis (DNA ladders); format: cell-based, rat; conditions: BM + 10^−9 M, 18 h after washing on 16 DIV
[6] = test system: mitochondrial membrane potential (ΔψM) of oligodendroglial cells; test: CMTMR estimation of mitochondrial membrane potential by confocal microscopy; format: cell-based, rat; conditions: BM + 10^−9 M, 18 h
Experimental: The ΔψM was assessed by the addition of a lipophilic, potentiometric dye, chloromethyl-tetramethylrhodamine methyl ester (CMTMR, Mitotracker Orange™ Molecular Probes, Eugene, Oreg.). The CMTMR dye reacts with the thiol groups on proteins and peptides to form aldehyde fixable conjugates. Entry of the negatively charged mitochondrial matrix compartment is proportional to the difference in the membrane potential. Therefore, the CMTMR fluorescence labels the mitochondrial membrane potential generated due to the negativity difference between the mitochondrial matrix and the outside of the mitochondria. Upon cell fixation, CMTMR remains in the mitochondria and is not washed out unlike other mitochondrial potentiometric dyes like rhodamine123.
Oligodendrocytes at 16 DIV were placed in trophically deprived BM for 18 h or treated with BM-D9 or BM-Ds9. […] The cells were incubated in CMTMR at 37° C. for 15 min. The cells were then fixed with 4% cold paraformaldehyde on ice for 30 min and washed twice with 0.1M PBS. Consequently, the coverslips were mounted on glass slides with Aquamount (Gurr, England).
Individual mitochondria labeled with CMTMR were resolved by confocal microscopy. A Leica true confocal scanning (TCS) 4D microscope coupled to an argon-krypton laser (Omnichrome, USA) was used for cell imaging. A pinhole size of 20 with an excitation filter wavelength of 568 nm and an emission filter wavelength of 590 nm was used to image the CMTMR labeled mitochondria. Each field of the coverslip was imaged using an oil-immersion, 100 X, 1.3 N.A. objective at 512 by 512 by 8 bits per pixel resolution, background offset of −1 and line averaged 32 times in bi-directional line scan mode. Care was taken not to exceed the dynamic range of the gray value display. The confocal images obtained were saved on an optical drive in a tagged image file format (TIFF).
Fluorescence intensity of individual mitochondria was measured using the Metamorph™ program. Metamorph™ compiles measurements of objects in a 8-bit image ranging from gray values 0 (background) and 255. In order to obtain fluorescence intensity measures, a rectangular region tool of 2×2 pixels was used to measure two randomly selected areas within each mitochondrion. A total of ten mitochondria obtained equally from all the regions of each cell were measured within each image. About 20 images were analyzed for each treatment condition thereby giving a sum of about 400 mitochondrial fluorescence intensity measures. The raw values were then further graphed and analyzed with the Microcal Origin 4.1 program. Frequency count was performed on the data, which classified the data in ordered bins. A frequency distribution was obtained with lower bin value set at 0 and higher bin value set at 260.

C#CCN(C)[C@H](C)Cc1ccccc1 [(−)-deprenyl, R-(−)-N,α-Dimethyl-N-2-propynyl phenethylamine]
number of intact methylene blue stained cells, % of those in BM (oligodendroglial cells [1]; experimental series-I): 576%
number of intact methylene blue stained cells, % of those in BM (oligodendroglial cells [1]; experimental series-II): 255%
CA1 hippocampal neuronal survival (CA1 hippocampal neurons; 0.25 mg/kg, days 3 or 7 (Lahtinen et al., 1997)): significant increase in survival at both time points
CA1 hippocampal neuronal survival (CA1 hippocampal neurons; 10 mg/kg daily from 1-2 hours after 5 minutes occlusion, day 4 (Ballabriga et al., 1997)): no increase in survival
OL cell numbers compared to those in BM (OLs; experimental series II): 291%
OL cell numbers compared to those in BM (OLs; experimental series-I): 565.0%
CA1, CA3 and CA4 hippocampal neuronal survival [2]: markedly significant increases in neuronal survival
band densities for MBP, CNP-ase I and PLP compared to IM [3]: exceed those for IM
immunodensity of marker proteins (MBP, PLP, GC, CNPase-I) compared to BM [3]: marked increase in immunodensity compared to BM
stability depending on pH of the medium [4]: more stable at a pH in the range of about 3-5 than at a pH of about 7
O-2A cell numbers compared to those in BM (O-2As; experimental series II): 176%
O-2A cell numbers compared to those in BM (O-2As; experimental series-I): 244%
DNA laddering on electrophoresis gels (oligodendroglial cells [5]): did not show detectable laddering
mitochondrial CMTMR fluorescence distributions (ΔψM) in ASTs, PROLs and OLs [6]: not significantly different to those found for IM; also recorded: prevented the decrease in ΔψM
